Results on four molecules are retold here after patent US20240108737A1, “ANTI-INFECTIVE BICYCLIC PEPTIDE LIGANDS” (priority 2021, published 2024).

Assay [1] concerns SARS-CoV-2 pseudotyped HIV-1 virions, P.1 (Gamma).
The subject of assay [2] is SARS-CoV-2 pseudotyped HIV-1 virions, B.1.427 (California).
In assay [3] the test system is SARS-CoV-2 pseudotyped HIV-1 virions, B.1.617.2 (Delta).
In assay [4] the test system is SARS-CoV-2 pseudotyped HIV-1 virions. As to conditions: 72 h.
For assay [5], the system named is SARS-CoV-2 pseudotyped HIV-1 virions, B.1.351 (Beta).
Assay [6] relates to SARS-CoV-2 pseudotyped HIV-1 virions, B.1.1.7 (Alpha).
Assay [7] has as its system SARS-CoV-2. The following applies: 3 h.
Assay [8] has as its system SARS-CoV-2. As to conditions: hamster, in vivo.

Molecules are shown by their SMILES. *1 amine or outer side, *2 acyl side, *3 side chain or, on linkers, in order; H or OH if unused. Where a SMILES comes first, the peptide text is derived from it. Bridges are numbered along the chain shown (N, C = ends). Roman numbers before positions name the chains, in order. [ ]: non-standard residue; d: D form. X1 = O=C(CCOCCOCCOCCOCCOCCOCCOCCOCCOCCOCCOCCOCCOCCOCCOCCOCCOCCOCCOCCOCCOCCOCCOCCOCCn1cc(CCC(=O)[*:2])nn1)[*:1]; X3 = O=C(CCc1cn(CCOCCOCCOCCOCCOCCOCCOCCOCCOCCOCCOCCOCCOCCOCCOCCOCCOCCOCCOCCOCCOCCOCCOCCOCCC(=O)[*:2])nn1)[*:1]; TATB = O=C(C[*:1])N1CN(C(=O)C[*:2])CN(C(=O)C[*:3])C1; X2 = C(c1nc(C[*:2])nc(C[*:3])n1)[*:1]; hArg = N=C(N)NCCCC[C@H](N)C(=O)O; tBuAla = CC(C)(C)C[C@H](N)C(=O)O; Agb = N=C(N)NCC[C@H](N)C(=O)O

As a reminder, the IC50 is the point on the concentration scale where inhibition reaches its midpoint. Lower therefore signals greater potency. As to `CC(=O)N[C@H]1CSCC(=O)N2CN3CN(C2)C(=O)CSC[C@H](NC(=O)[C@H](C(C)C)NC(=O)[C@@H]2CCCN2C(=O)[C@H](CC(N)=O)NC(=O)[C@H](CC(=O)O)NC(=O)[C@@H]2CCCN2C(=O)[C@H](CC(N)=O)NC(=O)[C@H](C)NC1=O)C(=O)N[C@@H](CCCNC(=N)N)C(=O)N[C@@H](Cc1ccccc1)C(=O)N[C@@H](Cc1ccc(O)cc1)C(=O)N[C@H](C(=O)N[C@@H](CCCCNC(=O)CCOCCOCCOCCOCCOCCOCCOCCOCCOCCOCCOCCOCCOCCOCCOCCOCCOCCOCCOCCOCCOCCOCCOCCOCCn1cc(CCC(=O)NCCCC[C@H](NC(=O)[C@@H]2CSCc4nc5nc(n4)CSC[C@H](NC(C)=O)C(=O)N4CCC[C@H]4C(=O)N[C@@H](Cc4ccc(O)cc4)C(=O)N[C@@H](C(C)C)C(=O)N[C@@H](C)C(=O)NCC(=O)N[C@@H](CCCCNC(=N)N)C(=O)N[C@H](C)C(=O)N[C@@H]([C@@H](C)O)C(=O)N[C@@H](CSC5)C(=O)N[C@@H](CC(C)C)C(=O)N[C@@H](CC(C)(C)C)C(=O)N2)C(N)=O)nn1)C(N)=O)CSCC3=O` [BCY18786] (I: Ac-CANPDNPVCRFYCK-NH2 / II: Ac-CPYVAG[hArg][dA]TCL[tBuAla]CK-NH2; linker I:1-I:9-I:13 via TATB; linker I:14-II:14 via X1; linker II:1-II:10-II:13 via X2), the IC50 amounted to 140 nM in assay [1]; 93 nM in assay [2]; 437 nM in assay [3]; 0.2 nM in assay [4]; 272 nM in assay [5]; 6 nM in assay [6]. The molecule also displayed an IC50 in assay [7] of 246 nM.
`CC(=O)N[C@@H](C)C(=O)N[C@H]1CSCC(=O)N2CN3CN(C2)C(=O)CSC[C@H](NC(=O)[C@H](C(C)C)NC(=O)[C@@H]2CCCN2C(=O)[C@H](CC(N)=O)NC(=O)[C@H](CC(=O)O)NC(=O)[C@@H]2CCCN2C(=O)[C@H](CO)NC(=O)[C@H](C)NC1=O)C(=O)N[C@@H](CCCNC(=N)N)C(=O)N[C@@H](Cc1ccccc1)C(=O)N[C@@H](Cc1ccc(O)cc1)C(=O)N[C@H](C(=O)N[C@@H](C)C(=O)N[C@@H](CCCCNC(=O)CCc1cn(CCOCCOCCOCCOCCOCCOCCOCCOCCOCCOCCOCCOCCOCCOCCOCCOCCOCCOCCOCCOCCOCCOCCOCCOCCC(=O)NCCCC[C@H](NC(=O)[C@@H]2CSCc4nc5nc(n4)CSC[C@H](NC(C)=O)C(=O)N4CCC[C@H]4C(=O)N[C@@H](Cc4ccc(O)cc4)C(=O)N[C@@H](C(C)C)C(=O)N[C@@H](C)C(=O)NCC(=O)N[C@@H](CCNC(=N)N)C(=O)N[C@H](C)C(=O)N[C@@H]([C@@H](C)O)C(=O)N[C@@H](CSC5)C(=O)N[C@@H](CC(C)C)C(=O)N[C@@H](CC(C)(C)C)C(=O)N2)C(N)=O)nn1)C(N)=O)CSCC3=O` [BCY17191] (I: Ac-ACASPDNPVCRFYCAK-NH2 / II: Ac-CPYVAG[Agb][dA]TCL[tBuAla]CK-NH2; linker I:2-I:10-I:14 via TATB; linker I:16-II:14 via X3; linker II:1-II:10-II:13 via X2) yielded an IC50 in assay [4] of 10.6 nM. In other words, the double-digit nanomolar range.
Regarding `CC(=O)N[C@H]1CSCc2nc3nc(n2)CSC[C@H](NC(=O)[C@H]([C@@H](C)O)NC(=O)[C@@H](C)NC(=O)[C@H](CCNC(=N)N)NC(=O)CNC(=O)[C@H](C)NC(=O)[C@H](C(C)C)NC(=O)[C@H](Cc2ccc(O)cc2)NC(=O)[C@@H]2CCCN2C1=O)C(=O)N[C@@H](CC(C)C)C(=O)N[C@@H](CC(C)(C)C)C(=O)N[C@H](C(=O)N[C@@H](CCCCNC(=O)CCOCCOCCOCCOCCOCCOCCOCCOCCOCCOCCOCCOCCOCCOCCOCCOCCOCCOCCOCCOCCOCCOCCOCCOCCn1cc(CCC(=O)NCCCC[C@H](NC(=O)[C@@H]2CSCc4nc5nc(n4)CSC[C@H](NC(C)=O)C(=O)N4CCC[C@H]4C(=O)N[C@@H](Cc4ccc(O)cc4)C(=O)N[C@@H](C(C)C)C(=O)N[C@@H](C)C(=O)NCC(=O)N[C@@H](CCNC(=N)N)C(=O)N[C@H](C)C(=O)N[C@@H]([C@@H](C)O)C(=O)N[C@@H](CSC5)C(=O)N[C@@H](CC(C)C)C(=O)N[C@@H](CC(C)(C)C)C(=O)N2)C(N)=O)nn1)C(N)=O)CSC3` [BCY17196] (I: Ac-CPYVAG[Agb][dA]TCL[tBuAla]CK-NH2 / II: Ac-CPYVAG[Agb][dA]TCL[tBuAla]CK-NH2; linker I:1-I:10-I:13, II:1-II:10-II:13 via X2; linker I:14-II:14 via X1), 15300 nM corresponded to half-maximal inhibition in assay [4] (IC50). Compared with the last molecule, the IC50 is about 1400-fold higher.
As for `CC[C@H](C)[C@@H]1NC(=O)[C@H](CCSC)NC(=O)[C@@H]2CSCC(=O)N3CN(CN(C3)C(=O)CSC[C@@H](C(=O)N[C@@H](CCCCNC(=O)CCOCCOCCOCCOCCOCCOCCOCCOCCOCCOCCOCCOCCOCCOCCOCCOCCOCCOCCOCCOCCOCCOCCOCCOCCn3cc(CCC(=O)NCCCC[C@H](NC(=O)[C@@H]4CSCc5nc6nc(n5)CSC[C@H](NC(C)=O)C(=O)N5CCC[C@H]5C(=O)N[C@@H](Cc5ccc(O)cc5)C(=O)N[C@@H](C(C)C)C(=O)N[C@@H](C)C(=O)NCC(=O)N[C@@H](CCNC(=N)N)C(=O)N[C@H](C)C(=O)N[C@@H]([C@@H](C)O)C(=O)N[C@@H](CSC6)C(=O)N[C@@H](CC(C)C)C(=O)N[C@@H](CC(C)(C)C)C(=O)N4)C(N)=O)nn3)C(N)=O)NC(=O)[C@H](C)NC1=O)C(=O)CSC[C@H](NC(C)=O)C(=O)N[C@@H]([C@@H](C)CC)C(=O)N1CCC[C@H]1C(=O)N[C@@H](CC(C)C)C(=O)N[C@@H](CC(=O)O)C(=O)N[C@@H](Cc1c[nH]c3ccccc13)C(=O)N[C@@H]([C@@H](C)O)C(=O)N2` [BCY18656], in assay [8], the “viral load of SARS-CoV-2” value was “reduces the viral load”. Also, half-maximal inhibition in assay [7] (IC50) was put at 0.314 nM.
